According to US6747033B2, “Fungicidal triazolopyrimid-7-ylideneamines” (BASF Aktiengesellschaft, priority 2000, dated 2004):
Where two headings read alike, the source gives them in different places.

Key:
Venturia inaequalis = assay: In vivo fungicidal activity, Apple Scab (AS); further: ranges in brackets are in %
Blumeria graminis = assay: In vivo fungicidal activity, Wheat powdery mildew (WPM); further: ranges in brackets are in %
Alternara solani = assay: In vivo fungicidal activity, Tomato early blight (TEB); further: ranges in brackets are in %
Botrytis cinera = assay: In vivo fungicidal activity, Pepper Botrytis (PB); further: ranges in brackets are in %
[1] = tested on: Pyricularia grisea f. sp. oryzae; type: in vivo; details: Rice Blast
Plasmopara viticola = assay: In vivo fungicidal activity, Grape downy mildew (GDM); further: ranges in brackets are in %
[2] = tested on: Pseudocercosporella herpotrichoides; assay: In vitro fungicidal activity, Cereal eye spot (PSDCHE); type: cell-based; parameters: key: 0: None; 3: slight; 5: moderate; 7: severe; 9: complete; details: 3-7 days of incubation
Method: (§1) Test compounds are dissolved in acetone to give concentrations of 25, 10 and 1 ppm and are added to individual cell Walls (24-cell-well plates, Corning), which were previously filled with a suspension of ground plates, Corning), which were previously filled with a suspension of ground fungal mycelium in a chemically defined growth medium. After 3-7 days of incubation, inhibition of […] growth is recorded using the following scale: The data obtained are shown in Table II. [table]

Pythium ultimum = assay: In vitro fungicidal activity, Fruit rot (PYTHUL); type: cell-based; parameters: key: 0: None; 3: slight; 5: moderate; 7: severe; 9: complete; details: 3-7 days of incubation
Method: as §1

Rhizoctonia solani = assay: In vitro fungicidal activity, Rice sheath blight (RHIZSO); type: cell-based; parameters: key: 0: None; 3: slight; 5: moderate; 7: severe; 9: complete; details: 3-7 days of incubation
Method: as §1

Row | SMILES | AS disease control rating (Venturia inaequalis; 12.5 ppm spray) | AS disease control rating (Venturia inaequalis; 50 ppm spray) | AS disease control rating (Venturia inaequalis; 200 ppm spray) | WPM disease control rating (Blumeria graminis; 12.5 ppm spray) | WPM disease control rating (Blumeria graminis; 50 ppm spray) | WPM disease control rating (Blumeria graminis; 200 ppm spray) | TEB disease control rating (Alternara solani; 12.5 ppm spray) | TEB disease control rating (Alternara solani; 50 ppm spray) | TEB disease control rating (Alternara solani; 200 ppm spray) | PB disease control rating (Botrytis cinera; 12.5 ppm spray) | PB disease control rating (Botrytis cinera; 50 ppm spray) | PB disease control rating (Botrytis cinera; 200 ppm spray) | RB disease control rating ([1]; 12.5 ppm spray) | RB disease control rating ([1]; 50 ppm spray) | RB disease control rating ([1]; 200 ppm spray) | GDM disease control rating (Plasmopara viticola; 12.5 ppm spray) | GDM disease control rating (Plasmopara viticola; 50 ppm spray) | GDM disease control rating (Plasmopara viticola; 200 ppm spray) | PSDCH inhibition of mycelial growth rating ([2]; 1 ppm) | PSDCH inhibition of mycelial growth rating ([2]; 10 ppm) | further results
1 | CC(N=c1c(-c2c(F)cccc2F)c(Cl)n(C)c2ncnn12)C(F)(F)F (centres unmarked) [Example 5] | 0 (0) | 0 (0) | 0 (0) | 0 (0) | 3 (30-44) | 6 (75-89) | 0 (0) | 0 (0) | 0 (0) | 0 (0) | 0 (0) | 1 (1-14) | 0 (0) | 0 (0) | 0 (0) | 6 (75-89) | 6 (75-89) | 5 (60-74) | – | – | –
2 | CC(N=c1c(-c2ccccc2Cl)c(Cl)n(C)c2ncnn12)C(F)(F)F (centres unmarked) [Example 6] | 0 (0) | 0 (0) | 5 (60-74) | 0 (0) | 0 (0) | 5 (60-74) | 0 (0) | 0 (0) | 0 (0) | 0 (0) | 0 (0) | 0 (0) | 0 (0) | 0 (0) | 5 (60-74) | 0 (0) | 0 (0) | 7 (90-95) | 0 | 1 | PSDCH inhibition of mycelial growth rating ([2]; 25 ppm): 0; PYTHU inhibition of mycelial growth rating (Pythium ultimum; 1 ppm): 0; PYTHU inhibition of mycelial growth rating (Pythium ultimum; 10 ppm): 0; PYTHU inhibition of mycelial growth rating (Pythium ultimum; 25 ppm): 0; RHIZSO inhibition of mycelial growth rating (Rhizoctonia solani; 1 ppm): 0; RHIZSO inhibition of mycelial growth rating (Rhizoctonia solani; 10 ppm): 0; RHIZSO inhibition of mycelial growth rating (Rhizoctonia solani; 25 ppm): 0
3 | CC(N=c1c(-c2ccc(F)cc2F)c(Cl)n(C)c2ncnn12)C(F)(F)F (centres unmarked) [Example 7] | 0 (0) | 0 (0) | 6 (75-89) | 0 (0) | 4 (45-59) | 6 (75-89) | 0 (0) | 0 (0) | 0 (0) | 2 (15-29) | 0 (0) | 0 (0) | 0 (0) | 0 (0) | 4 (45-59) | 0 (0) | 0 (0) | 8 (96-99) | 0 | 1 | PSDCH inhibition of mycelial growth rating ([2]; 25 ppm): 0; PYTHU inhibition of mycelial growth rating (Pythium ultimum; 1 ppm): 0; PYTHU inhibition of mycelial growth rating (Pythium ultimum; 10 ppm): 0; PYTHU inhibition of mycelial growth rating (Pythium ultimum; 25 ppm): 0; RHIZSO inhibition of mycelial growth rating (Rhizoctonia solani; 1 ppm): 5; RHIZSO inhibition of mycelial growth rating (Rhizoctonia solani; 10 ppm): 5; RHIZSO inhibition of mycelial growth rating (Rhizoctonia solani; 25 ppm): 5
4 | Cn1c(Cl)c(-c2c(F)cc(F)cc2F)c(=NCC(F)(F)F)n2ncnc12 [Example 8] | 0 (0) | 0 (0) | 5 (60-74) | 2 (15-29) | 4 (45-59) | 7 (90-95) | 2 (15-29) | 0 (0) | 0 (0) | 0 (0) | 0 (0) | 0 (0) | 0 (0) | 0 (0) | 4 (45-59) | 5 (60-74) | 4 (45-59) | 5 (60-74) | 0 | 0 | PSDCH inhibition of mycelial growth rating ([2]; 25 ppm): 0; PYTHU inhibition of mycelial growth rating (Pythium ultimum; 1 ppm): 0; PYTHU inhibition of mycelial growth rating (Pythium ultimum; 10 ppm): 0; PYTHU inhibition of mycelial growth rating (Pythium ultimum; 25 ppm): 0; RHIZSO inhibition of mycelial growth rating (Rhizoctonia solani; 1 ppm): 7; RHIZSO inhibition of mycelial growth rating (Rhizoctonia solani; 10 ppm): 7; RHIZSO inhibition of mycelial growth rating (Rhizoctonia solani; 25 ppm): 7
5 | COc1cc(F)c(-c2c(Cl)nc3n(C)cnn3c2=NC(C)C(F)(F)F)c(F)c1 (centres unmarked) [Example 13] | 0 (0) | 0 (0) | 0 (0) | 0 (0) | 3 (30-44) | 5 (60-74) | 0 (0) | 0 (0) | 0 (0) | 0 (0) | 0 (0) | 0 (0) | 0 (0) | 0 (0) | 0 (0) | 0 (0) | 0 (0) | 0 (0) | – | – | –
6 | CC(N=c1c(-c2c(F)cccc2F)c(Cl)nc2n(C)cnn12)C(F)(F)F (centres unmarked) [Example 14] | 0 (0) | 0 (0) | 6 (75-89) | 0 (0) | 0 (0) | 0 (0) | 0 (0) | 0 (0) | 0 (0) | 0 (0) | 0 (0) | 0 (0) | 0 (0) | 0 (0) | 0 (0) | 0 (0) | 4 (45-59) | 7 (90-95) | – | – | –
7 | CC(N=c1c(-c2ccccc2Cl)c(Cl)nc2n(C)cnn12)C(F)(F)F (centres unmarked) [Example 15] | 0 (0) | 0 (0) | 0 (0) | 0 (0) | 0 (0) | 3 (30-44) | 0 (0) | 0 (0) | 0 (0) | 0 (0) | 0 (0) | 2 (15-29) | 0 (0) | 0 (0) | 0 (0) | 2 (15-29) | 4 (45-59) | 6 (75-89) | 0 | 0 | PSDCH inhibition of mycelial growth rating ([2]; 25 ppm): 0; PYTHU inhibition of mycelial growth rating (Pythium ultimum; 1 ppm): 0; PYTHU inhibition of mycelial growth rating (Pythium ultimum; 10 ppm): 0; PYTHU inhibition of mycelial growth rating (Pythium ultimum; 25 ppm): 0; RHIZSO inhibition of mycelial growth rating (Rhizoctonia solani; 1 ppm): 0; RHIZSO inhibition of mycelial growth rating (Rhizoctonia solani; 10 ppm): 0; RHIZSO inhibition of mycelial growth rating (Rhizoctonia solani; 25 ppm): 3
8 | CC(N=c1c(-c2ccc(F)cc2F)c(Cl)nc2n(C)cnn12)C(F)(F)F (centres unmarked) [Example 16] | 0 (0) | 5 (60-74) | 6 (75-89) | 0 (0) | 0 (0) | 0 (0) | 0 (0) | 0 (0) | 0 (0) | 0 (0) | 0 (0) | 0 (0) | 0 (0) | 0 (0) | 0 (0) | – | 5 (60-74) | 7 (90-95) | 0 | 0 | PSDCH inhibition of mycelial growth rating ([2]; 25 ppm): 0; PYTHU inhibition of mycelial growth rating (Pythium ultimum; 1 ppm): 0; PYTHU inhibition of mycelial growth rating (Pythium ultimum; 10 ppm): 5; PYTHU inhibition of mycelial growth rating (Pythium ultimum; 25 ppm): 7; RHIZSO inhibition of mycelial growth rating (Rhizoctonia solani; 1 ppm): 5; RHIZSO inhibition of mycelial growth rating (Rhizoctonia solani; 10 ppm): 7; RHIZSO inhibition of mycelial growth rating (Rhizoctonia solani; 25 ppm): 7
